Experimental data: patent US20240197744A1, “TREATING SEX STEROID DEPENDENT CANCER WITH BMX INHIBITORS” (The Cleveland Clinic Foundation, priority 2021, published 2024)

Legend:
C4-2 xenografts = assay: C4-2 xenograft in eugonadal mice; assay type: in vivo; settings: C4-2 xenograft tumors
Experimental: (§1) Total RNA was extracted with GenElute Mammalian Total RNA miniprep kit (Sigma-Aldrich), and 1 μg RNA was reverse-transcribed to complementary DNA (cDNA) with the iScript cDNA Synthesis Kit (Bio-Rad). An ABI 7500 Real-Time PCR instrument (Applied Biosystems) was used to perform quantitative PCR (qPCR) analysis, using iTaq Fast SYBR Green Supermix with ROX (Bio-Rad) in 96-well plates at a final reaction volume of 10 μl. The qPCR analysis was carried out in triplicate with the following primer sets:
(§2) All mouse studies were performed under a protocol approved by the Institutional Animal Care and Use Committee of the Cleveland Clinic Lerner Research Institute. […]
(§3) To evaluate whether zanubrutinib suppresses tumor growth, 6 million C4-2 or 10 million VCaP cells (100 μl in 50% Matrigel and 50% growth media) were subcutaneously injected into mice. […] Tumor volume and progression-free survival were determined as described above. […] The number of mice in each group was determined by those that survived surgical procedures and had reached the 200 mm^3 tumor volume required to initiate treatment. Tumor diameters were measured by digital calipers three times per week and fresh frozen upon mouse sacrifice.
(§4) Androgens in xenografts were assessed by liquid chromatography tandem mass spectrometry as reported previously with slight modifications (Li et al., 2021; Zhu et al., 2018). […]

VCaP xenografts = assay: VCaP xenograft in eugonadal mice; assay type: in vivo; settings: VCaP xenograft tumors
Experimental: as §1, §2, §3, §4

C=CC(=O)N1CCC([C@@H]2CCNc3c(C(N)=O)c(-c4ccc(Oc5ccccc5)cc4)nn32)CC1 [zanubrutinib, Zanubrutinib]
no significant effect: tumor testosterone by mass spectrometry (C4-2 xenografts) | AR target gene expression (C4-2 xenografts; qPCR) | tumor testosterone by mass spectrometry (VCaP xenografts) | AR target gene expression (VCaP xenografts; qPCR)
